In patent US10597388B2, “Pyridazinone herbicides” (FMC CORPORATION, priority 2014, dated 2020):

Columns and labels:
Type in all cases: in vivo
[1] = test system: foxtail, giant (giant foxtail, Setaria faberii); experiment: Test A greenhouse herbicide test, pre- and postemergence
Method in brief: (§1)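 Seeds sown in loam–sand blend got a preemergence directed soil spray of compound in non-phytotoxic solvent with surfactant. Postemergence treatment was given at 2–10 cm, one- to two-leaf stage. After ~10 d in greenhouse, injury was rated visually vs untreated controls, 0 (no effect) to 100 (complete control).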

[2] = test system: pigweed (Amaranthus retroflexus); experiment: as above
Method in brief: as §1

[3] = test system: barnyardgrass (Echinochloa crus-galli); experiment: as above
Method in brief: as §1

[4] = test system: ragweed (common ragweed, Ambrosia elatior); experiment: as above
Method in brief: as §1

corn (Zea mays) = experiment: as above; conditions: Postemergence
Method in brief: as §1

[5] = test system: blackgrass (Alopecurus myosuroides); experiment: Test A greenhouse herbicide test, postemergence
Method in brief: (§2)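 Plants grown in loam soil/sand blend pots were treated postemergence at 2 to 10 cm height, one- to two-leaf stage, with formulated test chemicals. After approximately 10 d in a greenhouse, injury was rated visually against untreated controls on a 0 to 100 scale (0 no effect, 100 complete control).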

[6] = test system: galium (catchweed bedstraw, Galium aparine); experiment: Test A greenhouse herbicide test, postemergence
Method in brief: as §2

[7] = test system: galium (catchweed bedstraw, Galium aparine); experiment: Test C greenhouse herbicide test, pre- and postemergence
Method in brief: (§3)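 Each species was treated both before emergence, in a loam–sand soil mix, and after emergence, as 1- to 4-leaf seedlings in peat-based potting medium. Plants stayed in the greenhouse 13 to 15 d, then were scored from 0 (no effect) to 100 (complete control) relative to controls.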

[8] = test system: nutsedge, yellow (yellow nutsedge, Cyperus esculentus); experiment: as above
Method in brief: as §3

[9] = test system: barnyardgrass (Echinochloa crus-galli); experiment: as above
Method in brief: as §3

[10] = test system: wheat (winter wheat, Triticum aestivum); experiment: as above
Method in brief: as §3

[11] = Postemergence, 125 g ai/ha, 0 to 100 scale, 0 no effect, 100 complete control
[12] = Postemergence, 500 g ai/ha, visual rating after approx. 10 d, 0 to 100 scale (0 no effect, 100 complete control)
[13] = Preemergence, 125 g ai/ha, visual injury rating, 0 to 100 scale (0 no effect, 100 complete control), approx. 10 d
[14] = Preemergence, 500 g ai/ha, 0 to 100 scale where 0 is no effect and 100 is complete control
[15] = 125 g ai/ha, 0 to 100 scale, 0 no effect, 100 complete control
[16] = 500 g ai/ha, visual rating after approx. 10 d, 0 to 100 scale (0 no effect, 100 complete control)
[17] = Postemergence, 31 g ai/ha, scale 0 to 100 (0 no effect, 100 complete control)
[18] = Postemergence, 62 g ai/ha, 0 to 100 scale (0 no effect, 100 complete control)
[19] = Postemergence, 250 g ai/ha, scale 0 to 100, 0 is no effect, 100 is complete control
[20] = postemergence, 125 g ai/ha, scale 0 to 100, 0 no effect, 100 complete control
[21] = Preemergence, 31 g ai/ha, scale 0 to 100, 0 is no effect, 100 is complete control
[22] = Preemergence, 62 g ai/ha, scale 0 to 100, 0 is no effect, 100 is complete control
[23] = Preemergence, 125 g ai/ha, scale 0 to 100, 0 is no effect, 100 is complete control
[24] = Preemergence, 250 g ai/ha, scale 0 to 100 (0 no effect, 100 complete control)

CC(=O)Oc1c(C)nn(C)c(=O)c1-c1c([N+](=O)[O-])ccc2ccccc12 [Compound 164]
5: Plant response rating, Wheat [10, 17] | Wheat plant response rating [10, 18]
35: Plant response rating, Barnyardgrass [9, 19]
100: Plant response rating, Pigweed [2, 14] | Plant response rating, Ragweed [4, 12] | Plant response rating, Galium [6, 16] | Plant response rating, Galium [7, 19] | Galium plant response rating [7, 20]
95: Galium plant response rating [7, 18]
40: Plant response rating, Foxtail, Giant [1, 14] | Plant response rating, Blackgrass [5, 16] | Plant response rating, Nutsedge, Yellow [8, 19]
20: Plant response rating, Foxtail, Giant [1, 11] | Plant response rating, Barnyardgrass [3, 11] | Plant response rating, Barnyardgrass [3, 12] | Plant response rating, Barnyardgrass [3, 14] | Plant response rating, Corn (corn (Zea mays); [16]) | Plant response rating, Blackgrass [5, 15] | Plant response rating, Nutsedge, Yellow [8, 17] | Nutsedge, Yellow plant response rating [8, 18] | Plant response rating, Wheat [10, 19]
90: Plant response rating, Ragweed [4, 14] | Plant response rating, Galium [7, 17]
80: Plant response rating, Pigweed [2, 11] | Plant response rating, Pigweed [2, 12] | Plant response rating, Pigweed [2, 13] | Plant response rating, Galium [6, 15]
0: Plant response rating, Corn (corn (Zea mays); [15])
70: Plant response rating, Ragweed [4, 11]
50: Plant response rating, Ragweed [4, 13]
25: Nutsedge, Yellow plant response rating [8, 20] | Barnyardgrass plant response rating [9, 18]
30: Plant response rating, Foxtail, Giant [1, 12] | Barnyardgrass plant response rating [9, 20]
10: Plant response rating, Foxtail, Giant [1, 13] | Plant response rating, Barnyardgrass [3, 13] | Plant response rating, Barnyardgrass [9, 17] | Wheat plant response rating [10, 20]

CSCC(=O)Oc1c(C)nn(C)c(=O)c1-c1cccc2ccccc12 [Compound 171]
40: Plant response rating, Foxtail, Giant [1, 11] | Plant response rating, Barnyardgrass [3, 11] | Plant response rating, Corn (corn (Zea mays); [16]) | Barnyardgrass plant response rating [9, 20]
60: Plant response rating, Barnyardgrass [9, 19]
0: Plant response rating, Wheat [10, 17] | Plant response rating, Wheat [10, 21]
70: Plant response rating, Barnyardgrass [3, 13] | Plant response rating, Ragweed [4, 13] | Plant response rating, Nutsedge, Yellow [8, 23]
100: Plant response rating, Foxtail, Giant [1, 14] | Plant response rating, Pigweed [2, 12] | Plant response rating, Pigweed [2, 14] | Plant response rating, Barnyardgrass [3, 14] | Plant response rating, Ragweed [4, 11] | Plant response rating, Ragweed [4, 12] | Plant response rating, Galium [6, 16] | Galium plant response rating [7, 24]
80: Plant response rating, Blackgrass [5, 15]
35: Barnyardgrass plant response rating [9, 18] | Plant response rating, Barnyardgrass [9, 22]
55: Plant response rating, Nutsedge, Yellow [8, 22]
30: Wheat plant response rating [10, 20]
45: Plant response rating, Nutsedge, Yellow [8, 21] | Plant response rating, Wheat [10, 23]
75: Nutsedge, Yellow plant response rating [8, 18] | Nutsedge, Yellow plant response rating [8, 20] | Plant response rating, Barnyardgrass [9, 23]
15: Plant response rating, Barnyardgrass [9, 17] | Wheat plant response rating [10, 18]
20: Plant response rating, Corn (corn (Zea mays); [15]) | Plant response rating, Wheat [10, 19]
90: Plant response rating, Foxtail, Giant [1, 12] | Plant response rating, Pigweed [2, 11] | Plant response rating, Pigweed [2, 13] | Plant response rating, Barnyardgrass [3, 12] | Plant response rating, Ragweed [4, 14] | Plant response rating, Blackgrass [5, 16] | Plant response rating, Galium [6, 15] | Plant response rating, Galium [7, 21] | Plant response rating, Galium [7, 22] | Nutsedge, Yellow plant response rating [8, 24]
95: Plant response rating, Galium [7, 17] | Galium plant response rating [7, 18] | Plant response rating, Galium [7, 19] | Galium plant response rating [7, 20] | Barnyardgrass plant response rating [9, 24]
50: Plant response rating, Foxtail, Giant [1, 13] | Plant response rating, Nutsedge, Yellow [8, 17]
98: Plant response rating, Galium [7, 23]
5: Plant response rating, Barnyardgrass [9, 21] | Plant response rating, Wheat [10, 22]

Cc1ccc2ccccc2c1-c1c(OC(=O)N2CCOCC2)c(Br)nn(C)c1=O [Compound 176]
30: Plant response rating, Pigweed [2, 11] | Plant response rating, Blackgrass [5, 15] | Plant response rating, Blackgrass [5, 16]
0: Plant response rating, Foxtail, Giant [1, 11] | Plant response rating, Foxtail, Giant [1, 13] | Plant response rating, Pigweed [2, 13] | Plant response rating, Barnyardgrass [3, 11] | Plant response rating, Barnyardgrass [3, 13] | Plant response rating, Corn (corn (Zea mays); [15]) | Plant response rating, Corn (corn (Zea mays); [16]) | Plant response rating, Galium [7, 17] | Plant response rating, Wheat [10, 17]
10: Plant response rating, Foxtail, Giant [1, 12] | Plant response rating, Foxtail, Giant [1, 14] | Plant response rating, Barnyardgrass [3, 12] | Plant response rating, Barnyardgrass [3, 14] | Barnyardgrass plant response rating [9, 20] | Wheat plant response rating [10, 20]
20: Plant response rating, Ragweed [4, 13] | Plant response rating, Barnyardgrass [9, 19]
90: Plant response rating, Pigweed [2, 12] | Plant response rating, Pigweed [2, 14] | Plant response rating, Galium [6, 15]
100: Plant response rating, Ragweed [4, 12] | Plant response rating, Galium [6, 16]
60: Plant response rating, Galium [7, 19] | Galium plant response rating [7, 20]
40: Plant response rating, Ragweed [4, 11] | Plant response rating, Wheat [10, 19]
5: Galium plant response rating [7, 18] | Plant response rating, Nutsedge, Yellow [8, 17] | Nutsedge, Yellow plant response rating [8, 18] | Plant response rating, Nutsedge, Yellow [8, 19] | Nutsedge, Yellow plant response rating [8, 20] | Plant response rating, Barnyardgrass [9, 17] | Barnyardgrass plant response rating [9, 18] | Wheat plant response rating [10, 18]
70: Plant response rating, Ragweed [4, 14]
